Data published in patent US8013153B2, “Substituted pyrimidine kinase inhibitors” (Janssen Pharmaceutica, N.V., priority 2006, dated 2011).
Like-named read-outs stand apart in the source and are kept apart here.

Columns and labels:
[1] = biological target: T1, CDK1:Cyclin-B (Homo sapiens, UniProt P06493); test: CDK1 Screening Assay; assay type: biochemical
T1 construct: purchased New England Biolabs, Beverly, Mass; 6020; host or cells: insect cells
Procedure: (§1) A kinase reaction mixture was prepared containing 50 mM Tris-HCl pH=8, 10 mM MgCl2, 0.1 mM Na3PO4, 1 mM DTT, 10 μM ATP, 0.025 μM biotinylated histone-H1 peptide substrate and 0.2 μCuries per well ^33P-γ-ATP (2000-3000 Ci/mmol). 70 μL of the kinase reaction mixture was dispensed into the well of a streptavidin coated FlashPlate™ (Cat. # SMP103, NEN, Boston, Mass.). Then 1 μL of test compound stock in 100% DMSO was added to the wells resulting in a final concentration of 1% DMSO in the reaction with a 100 μL final reaction volume.
(§2) The CDK1:Cyclin-B protein was diluted in 50 mM Tris-HCl pH=8.0, 0.1% BSA at a concentration of 1 ng per μL and 30 μL (30 ng enzyme per test well) was added to each well to initiate the reaction. The reaction was incubated for one hour at 30° C. At the end of the 1 hour incubation, the reaction was terminated by aspirating the mixture from the plate and washing the wells twice with PBS containing 100 mM EDTA. The histone-H1 biotinylated peptide substrate became immobilized on the Flashplate™ and the incorporation of ^33P-γ-ATP was measured by reading the plate on a scintillation counter. Inhibition of the enzymatic activity of CDK1 was measured by observing a reduced amount of ^33P-γ-ATP incorporated into the immobilized peptide.
The CDK1 used was isolated from insect cells expressing both the human CDK1 catalytic subunit and its positive regulatory subunit cyclin B (New England Biolabs, Beverly, Mass., Cat. #6020).

[2] = biological target: T2, rat VEGF-R2 kinase domain (Rattus norvegicus, UniProt O08775); test: VEGF-R2 Screening Assay; assay type: biochemical
T2 construct: amino acids 786-1343 of the rat VEGF-R2 kinase domain; polyhistidine (N)
T2 sequence (O08775 786-1343): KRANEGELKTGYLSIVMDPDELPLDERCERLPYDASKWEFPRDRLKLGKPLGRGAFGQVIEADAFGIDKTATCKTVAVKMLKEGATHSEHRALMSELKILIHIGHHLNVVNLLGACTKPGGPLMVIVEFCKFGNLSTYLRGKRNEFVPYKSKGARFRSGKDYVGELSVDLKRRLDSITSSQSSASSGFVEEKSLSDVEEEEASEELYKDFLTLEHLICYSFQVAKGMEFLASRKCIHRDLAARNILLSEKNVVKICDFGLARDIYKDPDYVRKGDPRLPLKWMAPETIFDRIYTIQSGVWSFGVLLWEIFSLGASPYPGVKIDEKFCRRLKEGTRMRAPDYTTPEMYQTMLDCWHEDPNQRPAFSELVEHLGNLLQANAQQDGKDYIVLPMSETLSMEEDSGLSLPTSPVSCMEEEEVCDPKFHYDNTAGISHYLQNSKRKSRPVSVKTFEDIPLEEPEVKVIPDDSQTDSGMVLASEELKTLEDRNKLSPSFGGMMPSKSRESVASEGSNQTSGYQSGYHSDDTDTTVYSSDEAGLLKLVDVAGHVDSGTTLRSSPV

[3] = biological target: T3, murine Aurora-A (Mus musculus, UniProt P97477); test: Aurora-A Screening Assay; assay type: biochemical
T3 construct: replaced with the full length protein encoding the murine Aurora-A; made in house; host or cells: sf9 insect cells
T3 sequence (P97477 1-395): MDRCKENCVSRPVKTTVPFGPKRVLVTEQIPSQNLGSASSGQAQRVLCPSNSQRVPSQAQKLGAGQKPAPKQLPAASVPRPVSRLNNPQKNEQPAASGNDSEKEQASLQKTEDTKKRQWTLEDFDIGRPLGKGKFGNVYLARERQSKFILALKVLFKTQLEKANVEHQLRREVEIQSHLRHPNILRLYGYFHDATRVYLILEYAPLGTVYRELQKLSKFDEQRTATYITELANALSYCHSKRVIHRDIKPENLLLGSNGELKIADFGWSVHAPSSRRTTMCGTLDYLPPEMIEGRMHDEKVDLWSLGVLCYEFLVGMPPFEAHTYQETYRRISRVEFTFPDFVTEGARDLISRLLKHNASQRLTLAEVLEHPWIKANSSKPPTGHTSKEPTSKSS
Procedure: as §1, §2
The Aurora-A kinase assay was carried out using the CDK kinase assay procedure except that the enzyme was replaced with the full length protein encoding the murine Aurora-A (Accession #GB BC014711) expressed and purified from sf9 insect cells.

[4] = biological target: T4, HER2 cytoplasmic domain (Homo sapiens, UniProt P04626); test: HER2 Kinase Screening Assay; assay type: biochemical; settings: > means no observed 50% inhibition at the indicated test concentration; ~ means approximately 50% inhibition at that concentration
T4 construct: polyhistidine (N)
T4 sequence (P04626 676-1255 limits assumed): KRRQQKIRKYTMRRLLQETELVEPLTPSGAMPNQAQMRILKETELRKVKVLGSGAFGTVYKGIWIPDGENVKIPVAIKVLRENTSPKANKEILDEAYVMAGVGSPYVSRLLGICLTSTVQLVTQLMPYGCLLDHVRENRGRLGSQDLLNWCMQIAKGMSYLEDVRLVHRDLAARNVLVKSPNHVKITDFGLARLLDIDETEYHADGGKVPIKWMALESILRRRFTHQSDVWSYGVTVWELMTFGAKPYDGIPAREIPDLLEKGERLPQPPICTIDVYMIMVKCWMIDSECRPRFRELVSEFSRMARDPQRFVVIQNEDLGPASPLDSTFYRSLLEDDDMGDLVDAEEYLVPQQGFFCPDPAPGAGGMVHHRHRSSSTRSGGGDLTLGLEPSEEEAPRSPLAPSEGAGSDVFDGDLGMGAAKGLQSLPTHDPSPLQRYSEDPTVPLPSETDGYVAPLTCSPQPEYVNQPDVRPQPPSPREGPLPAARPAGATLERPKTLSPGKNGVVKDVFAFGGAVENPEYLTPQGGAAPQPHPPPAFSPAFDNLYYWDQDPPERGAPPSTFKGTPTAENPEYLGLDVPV
Procedure: as §1, §2
The HER2 kinase assay was carried out using the CDK kinase assay procedure except that the enzyme was replaced with a HER2 construct containing a polyhistidine tag at the N-terminus followed by 24 additional amino acids and the HER2 cytoplasmic domain beginning at amino acid 676 (Accession #M11730) to the end.

[5] = tested on: HeLa cervical adenocarcinoma; test: Inhibition of in vitro cell proliferation (HeLa); assay type: cell-based, human; settings: Homo sapiens, 14C-thymidine incorporation;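 further: cells exposed to compound for 24 h, then labelled 24 h with methyl 14C-thymidine, with uptake into DNA counted by scintillation against DMSO-only control wells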
[6] = tested on: HCT-116 colon carcinoma; test: Inhibition of in vitro cell proliferation (HCT116); assay type: cell-based, human; settings: Homo sapiens, HCT-116, 14C-thymidine incorporation;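 further: cells exposed to compound for 24 h, then 14C-thymidine added for a further 24 h and its uptake into DNA counted by scintillation, DMSO-only wells as control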
[7] = tested on: A375 malignant melanoma; test: Inhibition of in vitro cell proliferation (A375); assay type: cell-based, human; settings: Homo sapiens, A-375, 14C-thymidine incorporation;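 further: cells plated for 24 h, given compound for 24 h, then labelled with 14C-thymidine for another 24 h, with DMSO-only wells as control and counts read by scintillation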
[8] = > means no observed 50% inhibition at the indicated test concentration, ~ means approximately 50% inhibition at that concentration, read-out: IC50 VEGF-R2

T1 sequence (P06493 whole entry): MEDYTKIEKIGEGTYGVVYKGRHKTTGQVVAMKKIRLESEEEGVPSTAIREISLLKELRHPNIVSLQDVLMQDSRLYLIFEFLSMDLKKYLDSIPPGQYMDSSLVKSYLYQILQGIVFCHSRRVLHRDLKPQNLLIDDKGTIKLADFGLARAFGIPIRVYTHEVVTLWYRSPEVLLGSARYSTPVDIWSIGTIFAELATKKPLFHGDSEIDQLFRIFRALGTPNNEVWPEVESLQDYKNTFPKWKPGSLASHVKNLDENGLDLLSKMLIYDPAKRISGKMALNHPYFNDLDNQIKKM
T1 sequence (P14635 whole entry partner): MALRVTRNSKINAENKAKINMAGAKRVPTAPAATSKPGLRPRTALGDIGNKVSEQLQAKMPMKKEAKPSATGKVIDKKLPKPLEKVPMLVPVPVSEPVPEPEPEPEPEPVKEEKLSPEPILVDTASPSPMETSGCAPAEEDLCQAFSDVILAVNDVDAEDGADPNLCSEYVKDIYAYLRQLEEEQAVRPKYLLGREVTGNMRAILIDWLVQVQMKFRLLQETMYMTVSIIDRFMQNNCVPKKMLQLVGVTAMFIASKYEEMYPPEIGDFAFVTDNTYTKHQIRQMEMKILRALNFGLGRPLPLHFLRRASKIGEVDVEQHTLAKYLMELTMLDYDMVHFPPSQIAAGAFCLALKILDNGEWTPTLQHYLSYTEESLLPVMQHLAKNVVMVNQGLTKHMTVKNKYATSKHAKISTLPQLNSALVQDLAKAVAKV

| SMILES | IC50 [1] | IC50 [2, 8] | IC50 [3] | IC50 [4] | IC50 [5] | IC50 [6] | IC50 [7] | IC50 ([2]; IC50 VEGF-R2) |
| --- | --- | --- | --- | --- | --- | --- | --- | --- |
| Cc1cc2c(F)c(Oc3ncnc(N)c3C=NOCCCN3CCNCC3)ccc2[nH]1 [Cpd 21, 4-amino-6-(4-fluoro-2-methyl-1H-indol-5-yloxy)-pyrimidine-5-carbaldehyde O-(3-piperazin-1-yl-propyl)-oxime] | > 100 µM | 0.036 µM | > 10 µM | 0.767 µM | 24.5 µM | 68.1 µM | 11.2 µM | – |
| CCNC(=O)Nc1ccc(Oc2ncnc(N)c2C=NOC)c(Cl)c1 [Cpd 71, 1-{4-[6-amino-5-(methoxyimino-methyl)-pyrimidin-4-yloxy]-3-chloro-phenyl}-3-ethyl-urea] | > 100 µM | 0.179 µM | > 10 µM | > 1 µM | 3.98 µM | 4.79 µM | 3.09 µM | – |
| CCNC(=O)Nc1ccc(Oc2ncnc(N)c2C=NOCCOC)cc1Cl [Cpd 104, 1-(4-{6-amino-5-[(2-methoxy-ethoxyimino)-methyl]-pyrimidin-4-yloxy}-2-chloro-phenyl)-3-ethyl-urea] | > 100 µM | 0.041 µM | > 100 µM | > 100 µM | – | – | – | – |
| CON=Cc1c(N)ncnc1Oc1ccc(NC(=O)Nc2ccc(F)cc2)c(Br)c1 [Cpd 74, 1-{4-[6-amino-5-(methoxyimino-methyl)-pyrimidin-4-yloxy]-2-bromo-phenyl}-3-(4-fluoro-phenyl)-urea] | > 100 µM | ~100 µM | > 100 µM | > 1 µM | > 100 µM | > 100 µM | > 10 µM | – |
| CON=Cc1c(N)ncnc1Oc1cc(OC)cc(OC)c1 [Cpd 106, 4-amino-6-(3,5-dimethoxyphenoxy)-5-pyrimidinecarboxaldehyde O-methyloxime] | > 100 µM | > 10 µM | > 100 µM | > 10 µM | – | – | – | – |
| CON=Cc1c(N)ncnc1OCc1ccc2ccccc2c1 [Cpd 115, 4-amino-6-(2-naphthalenylmethoxy)-5-pyrimidinecarboxaldehyde O-methyloxime] | – | > 10 µM | – | – | – | – | – | – |
| CCOC(=O)c1c(C)[nH]c2ccc(Oc3ncnc(N)c3/C=N/OC)cc12 [Cpd 107, 5-[{6-amino-5-[(E)-(methoxyimino)methyl]-4-pyrimidinyl}oxy]-2-methyl-1H-indole-3-carboxylic acid ethyl ester] | > 100 µM | > 100 µM | > 100 µM | > 100 µM | – | – | – | – |
| CNC(=O)c1ccc(Oc2ncnc(N)c2C=NOC)cc1 [Cpd 98, 4-[6-amino-5-(methoxyimino-methyl)-pyrimidin-4-yloxy]-N-methyl-benzamide] | > 100 µM | – | > 100 µM | > 100 µM | – | – | – | – |
| CNC(=O)Cc1ccc(Oc2ncnc(N)c2C=NOC)cc1 [Cpd 96, 2-{4-[6-amino-5-(methoxyimino-methyl)-pyrimidin-4-yloxy]-phenyl}-N-methyl-acetamide] | > 100 µM | – | > 10 µM | > 100 µM | – | – | – | 19.7 µM |
| CCNC(=O)Nc1ccc(Oc2ncnc(N)c2C=NOCCN2CCOCC2)cc1Cl [Cpd 103, 1-(4-{6-amino-5-[(2-morpholin-4-yl-ethoxyimino)-methyl]-pyrimidin-4-yloxy}-2-chloro-phenyl)-3-ethyl-urea] | > 100 µM | 0.093 µM | > 100 µM | > 100 µM | – | – | – | – |
| CCNC(=O)Cc1ccc(Oc2ncnc(N)c2C=NOC)cc1 [Cpd 101, 2-{4-[6-amino-5-(methoxyimino-methyl)-pyrimidin-4-yloxy]-phenyl}-N-ethyl-acetamide] | > 100 µM | – | > 10 µM | > 100 µM | – | – | – | – |
| CCNC(=O)Oc1ccc(Oc2ncnc(N)c2C=NOC)cc1 [Cpd 102, ethyl-carbamic acid 4-[6-amino-5-(methoxyimino-methyl)-pyrimidin-4-yloxy]-phenyl ester] | > 100 µM | – | > 10 µM | > 100 µM | – | – | – | – |
| Cc1cc2c(F)c(Oc3ncnc(N)c3C=NOCCCN(C)C)ccc2[nH]1 [Cpd 17, 4-amino-6-(4-fluoro-2-methyl-1H-indol-5-yloxy)-pyrimidine-5-carbaldehyde O-(3-dimethylamino-propyl)-oxime] | > 100 µM | – | 33.8 µM | ~10 µM | – | – | – | – |
| CON=Cc1c(N)ncnc1Oc1ccc2c(c1)OCO2 [Cpd 108, 4-amino-6-(1,3-benzodioxol-5-yloxy)-5-pyrimidinecarboxaldehyde O-methyloxime] | > 100 µM | 3.96 µM | > 10 µM | > 10 µM | – | – | – | – |
| C=CCON=Cc1c(N)ncnc1Oc1ccc2[nH]c(C)cc2c1F [Cpd 31, 4-amino-6-(4-fluoro-2-methyl-1H-indol-5-yloxy)-pyrimidine-5-carbaldehyde O-allyl-oxime] | > 100 µM | – | > 100 µM | > 100 µM | 0.042 µM | 0.04 µM | 0.021 µM | – |
| CON=Cc1c(N)ncnc1OCc1cccc(F)c1 [Cpd 112, 4-amino-6-[(3-fluorophenyl)methoxy]-5-pyrimidinecarboxaldehyde O-methyloxime] | – | – | – | > 10 µM | – | – | – | – |
| CO/N=C/c1c(N)ncnc1Oc1ccc2[nH]c(C)cc2c1 [Cpd 2, 4-amino-6-(2-methyl-1H-indol-5-yloxy)-pyrimidine-5-carbaldehyde O-methyl-oxime] | > 100 µM | – | ~100 µM | > 1 µM | 0.389 µM | 0.386 µM | 0.356 µM | – |
| CON=Cc1c(N)ncnc1Oc1ccc(F)c(Cl)c1 [Cpd 109, 4-amino-6-(3-chloro-4-fluorophenoxy)-5-pyrimidinecarboxaldehyde O-methyloxime] | > 100 µM | > 100 µM | > 100 µM | > 1 µM | – | – | – | – |
| CON=Cc1c(N)ncnc1Oc1ccc(CC(=O)Nc2cccc(F)c2)cc1 [Cpd 100, 2-{4-[6-amino-5-(methoxyimino-methyl)-pyrimidin-4-yloxy]-phenyl}-N-(3-fluoro-phenyl)-acetamide] | > 100 µM | – | > 100 µM | 2.8 µM | – | – | – | – |
| CNC(=O)n1c(C)cc2c(F)c(Oc3ncnc(N)c3C=NOC)ccc21 [Cpd 43, 5-[6-amino-5-(methoxyimino-methyl)-pyrimidin-4-yloxy]-4-fluoro-2-methyl-indole-1-carboxylic acid methylamide] | > 100 µM | ~1 µM | > 100 µM | > 10 µM | – | – | – | – |
| CON=Cc1c(N)ncnc1Oc1ccc(OC(=O)Nc2cccc(Cl)c2)cc1 [Cpd 105, (3-chloro-phenyl)-carbamic acid 4-[6-amino-5-(methoxyimino-methyl)-pyrimidin-4-yloxy]-phenyl ester] | > 100 µM | > 100 µM | > 100 µM | > 100 µM | – | – | – | – |
| COCCCON=Cc1c(N)ncnc1Oc1ccc2[nH]c(C)cc2c1F [Cpd 33, 4-amino-6-(4-fluoro-2-methyl-1H-indol-5-yloxy)-pyrimidine-5-carbaldehyde O-(3-methoxy-propyl)-oxime] | > 100 µM | – | > 10 µM | 3.99 µM | 0.346 µM | 0.438 µM | 0.3 µM | – |
| CO/N=C/c1c(N)ncnc1Oc1ccc2[nH]cc(CCNC(C)=O)c2c1 [Cpd 113, N-[2-{5-[{6-amino-5-[(E)-(methoxyimino)methyl]-4-pyrimidinyl}oxy]-1H-indol-3-yl}ethyl]-acetamide] | > 100 µM | > 100 µM | > 100 µM | > 100 µM | – | – | – | – |
